Laboratory results published in the supplement of paper PMC10307832.

Legend:
Experiment in all cases: relative viability (nuclei count vs DMSO), 5 days (fraction); higher = more cells survive
[1] = compound: C1=CC=C(C(=C1)C2=CC=C(C=C2)C3=CSC4=C3C(=C(C(=O)N4)C#N)O)O + COc1cccc2cc(-c3nc([C@H]4CC[C@H](C(=O)O)CC4)n4ncnc(N)c34)[nH]c12 [OSI-027] (partner 0.5 µM)
Procedure, shortened: (§1)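 For relative viability, nuclei counts in treated wells were divided by those in vehicle wells. Lung cancer cell lines had been pin-tool dosed in 1536-well plates the day after seeding and cultured for 5 days, then fixed and stained in one step (final 0.05% Triton X-100, 1% formaldehyde, 1 ug/ml Hoechst) and imaged at 4×. Doses were one drug alone or a fixed anchor-drug dose plus five library-drug doses (not always all listed) in √10 steps, and values are duplicate-plate medians.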

[2] = compound: C1=CC=C(C(=C1)C2=CC=C(C=C2)C3=CSC4=C3C(=C(C(=O)N4)C#N)O)O + C[C@@H](Oc1cc(-c2cnn(C3CCNCC3)c2)cnc1N)c1c(Cl)ccc(F)c1Cl [Crizotinib] (partner 1 µM)
Procedure, shortened: as §1

TGX 221 + Pictilisib = compound: CC1=CN2C(=O)C=C(N=C2C(=C1)C(C)NC3=CC=CC=C3)N4CCOCC4 [TGX 221] + CS(=O)(=O)N1CCN(Cc2cc3nc(-c4cccc5[nH]ncc45)nc(N4CCOCC4)c3s2)CC1 [Pictilisib] (partner 1 µM)
Procedure, shortened: as §1

[3] = compound: O=C(CCCCCCNC(=O)c1cnc(N(c2ccccc2)c2ccccc2)nc1)NO [Ricolinostat] + CC(=O)c1c(C)c2cnc(Nc3ccc(N4CCNCC4)cn3)nc2n(C2CCCC2)c1=O [Palbociclib] (partner 0.5 µM)
Procedure, shortened: as §1

[4] = compound: O=C(CCCCCCNC(=O)c1cnc(N(c2ccccc2)c2ccccc2)nc1)NO [Ricolinostat] + Nc1nc2[nH]cc(CCc3ccc(C(=O)N[C@@H](CCC(=O)O)C(=O)O)cc3)c2c(=O)[nH]1 [Pemetrexed] (partner 0.2 µM)
Procedure, shortened: as §1

NCI-H1792
relative viability ([1]; first compound 0.253 µM): 0.688
relative viability ([1]; first compound 2.53 µM): 0.667
relative viability ([1]; first compound 8 µM): 0.477
relative viability ([2]; first compound 0.253 µM): 0.915
relative viability ([2]; first compound 0.8 µM): 1.15
relative viability ([2]; first compound 2.53 µM): 1.13
relative viability ([2]; first compound 8 µM): 0.43
relative viability (TGX 221 + Pictilisib; first compound 0.08 µM): 0.29
relative viability (TGX 221 + Pictilisib; first compound 0.253 µM): 0.281
relative viability (TGX 221 + Pictilisib; first compound 0.8 µM): 0.294
relative viability (TGX 221 + Pictilisib; first compound 2.53 µM): 0.246
relative viability (TGX 221 + Pictilisib; first compound 8 µM): 0.228
relative viability ([3]; first compound 0.253 µM): 0.635
relative viability ([3]; first compound 0.8 µM): 0.684
relative viability ([3]; first compound 2.53 µM): 0.742
relative viability ([4]; first compound 0.253 µM): 0.92
relative viability ([4]; first compound 0.8 µM): 0.59
relative viability ([4]; first compound 2.53 µM): 0.415
